For the assay, the target named is T1, IKZF2 (Homo sapiens, UniProt Q96SW2+Q9UKS7).
T1 construct: CRISPR/Cas9—mediated insertion of the HiBiT peptide tag (Promega™) to the N-terminus of the IKZF2 gene locus; endogenous in cells; host or cells: MOLT4 cells, with CRISPR/Cas9 knock-in of HiBiT at the endogenous IKZF2 locus
In words: HiBit-IKZF2 assay (HiBiT-Helios degradation in MOLT4 cells). Type of assay: cell-based. The settings on record: for Dmax: MOLT-4, extent of degradation from highest to lowest concentration, 10 μM to 0.00026 μM, read-out: Dmax; for DC50: concentration at which 50% of HiBiT-Helios degradation was achieved. As for the experimental part: The HiBiT protein tagging system was applied to MOLT4 cells via a CRISPR/Cas9—mediated insertion of the HiBiT peptide tag (Promega™) to the N-terminus of the IKZF2 gene locus (Neon™ Transfection System). The resulting HiBiT-Helios stable cell line was treated with the following compounds in triplicates following a 13-point concentration scheme ranging from 10 μM to 0.00026 μM. At the indicated timepoints, the Nano-Glo® HiBiT Lytic Detection System (Promega™) was utilized for detecting bioluminescence of the HiBiT tag in treated cells: abundance of the tag is proportionate to the level of luminescence. Following normalization to DMSO, dose-response curves were plotted (GraphPad Prism) to determine the concentration points at which 50% of HiBiT-Helios degradation was achieved by each compound. The extent of degradation (range of luminescence) from the highest to lowest concentration points was calculated to determine the Dmax.
For orientation: HiBiT is a short tag that completes a luciferase, so light tracks the accessible tagged protein.

T1 sequence (Q9UKS7 whole entry): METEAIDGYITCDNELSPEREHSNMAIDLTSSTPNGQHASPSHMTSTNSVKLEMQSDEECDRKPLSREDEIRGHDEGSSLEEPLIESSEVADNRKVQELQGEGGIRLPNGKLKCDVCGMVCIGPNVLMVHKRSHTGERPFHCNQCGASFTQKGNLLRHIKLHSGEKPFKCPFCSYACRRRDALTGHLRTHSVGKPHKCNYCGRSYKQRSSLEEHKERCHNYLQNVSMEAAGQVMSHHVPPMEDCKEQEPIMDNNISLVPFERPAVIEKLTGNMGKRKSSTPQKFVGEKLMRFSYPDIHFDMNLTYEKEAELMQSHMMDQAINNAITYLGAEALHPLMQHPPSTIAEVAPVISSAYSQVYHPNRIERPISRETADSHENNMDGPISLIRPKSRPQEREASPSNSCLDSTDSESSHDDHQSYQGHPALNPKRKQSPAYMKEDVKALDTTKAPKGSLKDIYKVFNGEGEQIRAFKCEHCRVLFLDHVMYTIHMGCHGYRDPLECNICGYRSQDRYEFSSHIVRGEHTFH
T1 sequence (Q96SW2 whole entry): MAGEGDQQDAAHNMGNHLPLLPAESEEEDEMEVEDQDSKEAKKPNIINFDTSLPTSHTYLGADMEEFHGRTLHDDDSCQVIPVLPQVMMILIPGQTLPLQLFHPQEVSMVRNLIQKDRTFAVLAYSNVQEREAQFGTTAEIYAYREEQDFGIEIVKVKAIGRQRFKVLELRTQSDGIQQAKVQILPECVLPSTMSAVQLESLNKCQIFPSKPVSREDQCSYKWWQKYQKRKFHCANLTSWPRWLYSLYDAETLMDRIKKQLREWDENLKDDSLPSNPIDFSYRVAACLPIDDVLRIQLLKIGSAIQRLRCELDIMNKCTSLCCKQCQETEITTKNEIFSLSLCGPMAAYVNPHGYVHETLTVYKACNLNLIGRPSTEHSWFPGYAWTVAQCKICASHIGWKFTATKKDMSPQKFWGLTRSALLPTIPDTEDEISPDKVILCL
T1 sequence (Q16531 whole entry partner): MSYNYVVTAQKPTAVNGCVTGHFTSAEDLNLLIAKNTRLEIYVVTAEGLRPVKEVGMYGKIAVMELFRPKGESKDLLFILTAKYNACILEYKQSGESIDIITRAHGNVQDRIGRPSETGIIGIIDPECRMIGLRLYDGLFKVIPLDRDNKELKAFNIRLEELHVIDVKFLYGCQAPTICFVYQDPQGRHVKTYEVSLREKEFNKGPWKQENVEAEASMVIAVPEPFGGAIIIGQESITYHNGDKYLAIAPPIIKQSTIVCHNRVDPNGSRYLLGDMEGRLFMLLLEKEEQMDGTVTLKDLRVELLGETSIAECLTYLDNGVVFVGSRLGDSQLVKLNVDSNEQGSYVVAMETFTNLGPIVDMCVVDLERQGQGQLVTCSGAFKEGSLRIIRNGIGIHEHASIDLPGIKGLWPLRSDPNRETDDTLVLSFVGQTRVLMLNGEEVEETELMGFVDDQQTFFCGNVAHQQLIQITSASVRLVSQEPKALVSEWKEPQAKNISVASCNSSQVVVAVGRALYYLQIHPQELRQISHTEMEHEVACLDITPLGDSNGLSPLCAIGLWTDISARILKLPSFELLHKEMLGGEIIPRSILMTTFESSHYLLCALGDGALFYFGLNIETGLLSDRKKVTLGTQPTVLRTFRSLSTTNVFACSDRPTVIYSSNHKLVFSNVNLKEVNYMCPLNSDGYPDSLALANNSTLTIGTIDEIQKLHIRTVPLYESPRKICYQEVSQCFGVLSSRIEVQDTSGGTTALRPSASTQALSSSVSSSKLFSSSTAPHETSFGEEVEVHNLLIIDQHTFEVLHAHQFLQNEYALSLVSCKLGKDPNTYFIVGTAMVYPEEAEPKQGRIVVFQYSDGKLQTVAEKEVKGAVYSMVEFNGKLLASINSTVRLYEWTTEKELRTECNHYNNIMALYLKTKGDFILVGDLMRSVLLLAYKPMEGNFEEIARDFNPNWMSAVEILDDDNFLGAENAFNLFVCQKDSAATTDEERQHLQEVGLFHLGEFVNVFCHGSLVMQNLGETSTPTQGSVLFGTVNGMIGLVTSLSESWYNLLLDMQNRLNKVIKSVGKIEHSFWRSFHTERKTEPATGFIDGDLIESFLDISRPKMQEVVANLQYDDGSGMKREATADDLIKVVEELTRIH

Usually Dmax stands for the largest share of the target that was removed. What is called DC50 is the concentration at which degradation of the target reaches its halfway point. Higher therefore signals degradation only at high concentration. For `O=C1CCC(N2Cc3cc(C4CCN(Cc5ccc(F)c(Nc6ccccc6)n5)CC4)ccc3C2=O)C(=O)N1` (centres unmarked) [Compound 187], the Dmax fell in the range of 50 to 70% and the DC50 lay within 0.01 to 0.03 µM.

Regarding `O=C1CCC(N2Cc3cc(C4CCN(Cc5ccc6c(c5)C(=O)N(c5ncccc5F)C6)CC4)ccc3C2=O)C(=O)N1` (centres unmarked) [Compound 221], the Dmax was 50 to 70% and the half-maximal degradation concentration (DC50) is below 0.01 µM.

Regarding `O=C1CCC(N2Cc3cc(C4CCN(Cc5cccc(C(=O)Nc6ccccn6)c5)CC4)ccc3C2=O)C(=O)N1` (centres unmarked) [Compound 156], the greatest degradation seen (Dmax) lay in the range of 50 to 70% and the DC50 is below 0.01 µM.

Consider `O=C1CCC(N2Cc3cc(C4(O)CCN(Cc5ccc6c(c5)C(=O)N(c5ccccc5)C6)CC4)ccc3C2=O)C(=O)N1` (centres unmarked) [Compound 200, 3-(5-(4-hydroxy-1-((3-oxo-2-phenylisoindolin-5-yl)methyl)piperidin-4-yl)-1-oxoisoindolin-2-yl)piperidine-2,6-dione], for which the Dmax is above 70% and the DC50 is below 0.01 µM.

For the compound `Cc1ccnc(Nc2cccc(CN3CCC(c4ccc5c(c4)CN(C4CCC(=O)NC4=O)C5=O)CC3)c2)n1` (centres unmarked) [Compound 229], the Dmax was in the range of 50 to 70% and the 50% degradation concentration (DC50) is below 0.01 µM.

Turning to `O=C1CCC(N2Cc3cc(C4CCN(Cc5cccc6c5CN(c5ccccc5)C6=O)CC4)ccc3C2=O)C(=O)N1` (centres unmarked) [Compound 113], the Dmax was 30 to 50% and the half-maximal degradation concentration (DC50) is below 0.01 µM.

In the case of `O=C1CCC(N2Cc3cc(C4(O)CCN(Cc5ccc(-c6ccccc6)cc5)CC4)ccc3C2=O)C(=O)N1` (centres unmarked) [Compound 206], the Dmax is above 70% and the DC50 is below 0.01 µM.

As for `O=C1CCC(N2Cc3cc(C4CCN(Cc5ccnc(Nc6ccccc6)n5)CC4)ccc3C2=O)C(=O)N1` (centres unmarked) [Compound 122], the Dmax lay in the range of 30 to 50% and the DC50 was 0.01 to 0.03 µM.

As for `O=C1CCC(N2Cc3cc(C4CCN(Cc5cccc(N6Cc7cccnc7C6=O)c5)CC4)ccc3C2=O)C(=O)N1` (centres unmarked) [Compound 129], the greatest degradation seen (Dmax) lay in the range of 50 to 70% and the DC50 lay within 0.01 to 0.03 µM.

In the case of `O=C1CCC(N2Cc3cc(C4(O)CCN(Cc5ccccc5C(F)(F)F)CC4)ccc3C2=O)C(=O)N1` (centres unmarked) [Compound 249], the Dmax was above 70% and the 50% degradation concentration (DC50) is below 0.01 µM.

For `O=C1CCC(N2Cc3cc(C4CCN(Cc5ccc6c(c5)S(=O)(=O)N(c5ccccc5)C6)CC4)ccc3C2=O)C(=O)N1` (centres unmarked) [Compound 80], the Dmax fell in the range of 30 to 50% and the DC50 is 0.03 to 0.15 µM.

On to `O=C1CCC(N2Cc3cc(C4CCN(Cc5cccc(S(=O)(=O)N6CCC7(CC7)C6)c5)CC4)ccc3C2=O)C(=O)N1` (centres unmarked) [Compound 60], for which the Dmax was 50 to 70% and the DC50 is 0.01 to 0.03 µM.

Take `CP(C)(=O)c1ccccc1Nc1cccc(CN2CCC(c3ccc4c(c3)CN(C3CCC(=O)NC3=O)C4=O)CC2)c1` (centres unmarked) [Compound 134]: the Dmax was 50 to 70% and the 50% degradation concentration (DC50) is below 0.01 µM.

As for `O=C1CCC(N2Cc3cc(C4(O)CCN(Cc5ccc(Oc6ccccc6)cc5)CC4)ccc3C2=O)C(=O)N1` (centres unmarked) [Compound 253], the Dmax was 50 to 70% and the DC50 is below 0.01 µM.

For the compound `O=C1CCC(N2Cc3cc(C4CCN(Cc5cccc(N6C(=O)Cc7cccnc76)c5)CC4)ccc3C2=O)C(=O)N1` (centres unmarked) [Compound 118], the maximal degradation (Dmax) is 30 to 50% and the half-maximal degradation concentration (DC50) was 0.03 to 0.15 µM.

With `Cc1ccccc1N1Cc2ccc(CN3CCC(c4ccc5c(c4)CN(C4CCC(=O)NC4=O)C5=O)CC3)cc2C1=O` (centres unmarked) [Compound 214], the maximal degradation (Dmax) lay in the range of 50 to 70% and the DC50 lay within 0.01 to 0.03 µM.

As to `N#CC1(COc2ccccc2CN2CCC(O)(c3ccc4c(c3)CN(C3CCC(=O)NC3=O)C4=O)CC2)CC1` (centres unmarked) [Compound 209], the maximal degradation (Dmax) is 50 to 70% and the 50% degradation concentration (DC50) was 0.01 to 0.03 µM.

On to `O=C1CCC(N2Cc3cc(C4(O)CCN(Cc5nc6ccccc6s5)CC4)ccc3C2=O)C(=O)N1` (centres unmarked) [Compound 260], for which the maximal degradation (Dmax) was 50 to 70% and the half-maximal degradation concentration (DC50) lay in the range of 0.01 to 0.03 µM.

Consider `O=C1CCC(N2Cc3cc(C4(O)CCN(Cc5cccnc5Oc5ccccc5)CC4)ccc3C2=O)C(=O)N1` (centres unmarked) [Compound 195], for which the Dmax lay within 50 to 70% and the DC50 is below 0.01 µM.

Regarding `O=C1CCC(N2Cc3cc(C4(O)CCN(Cc5cccc6c5CCN(c5ccccn5)C6=O)CC4)ccc3C2=O)C(=O)N1` (centres unmarked) [Compound 202], the Dmax is 50 to 70% and the DC50 is below 0.01 µM.

With `O=C1CCC(N2Cc3cc(C4(O)CCN(Cc5ccc6c(c5)C(=O)N(c5ccccc5O)C6)CC4)ccc3C2=O)C(=O)N1` (centres unmarked) [Compound 219], the maximal degradation (Dmax) was above 70% and the DC50 is below 0.01 µM.

Take `O=C1CCC(N2Cc3cc(C4CCN(Cc5cccc(Nc6cccnn6)c5)CC4)ccc3C2=O)C(=O)N1` (centres unmarked) [Compound 127]: the maximal degradation (Dmax) was in the range of 50 to 70% and the 50% degradation concentration (DC50) lay within 0.01 to 0.03 µM.

Consider `O=C1CCC(N2Cc3cc(C4CCN(Cc5ccc(S(=O)(=O)Nc6ccccn6)cc5)CC4)ccc3C2=O)C(=O)N1` (centres unmarked) [Compound 157], for which the Dmax was in the range of 50 to 70% and the DC50 lay within 0.03 to 0.15 µM.

As for `O=C1CCC(N2Cc3cc(C4CCN(Cc5ccnc(C(=O)Nc6ccccn6)c5)CC4)ccc3C2=O)C(=O)N1` (centres unmarked) [Compound 130], the greatest degradation seen (Dmax) lay within 50 to 70% and the DC50 is 0.01 to 0.03 µM.

In the case of `O=C1CCC(N2Cc3cc(C4CCN(Cc5ccccc5C(=O)Nc5ccccc5)CC4)ccc3C2=O)C(=O)N1` (centres unmarked) [Compound 144], the Dmax is 50 to 70% and the DC50 lay in the range of 0.01 to 0.03 µM.

As for `O=C1CCC(N2Cc3cc(C4CCN(Cc5cccc(N6Cc7ccccc7S6(=O)=O)c5)CC4)ccc3C2=O)C(=O)N1` (centres unmarked) [Compound 136], the Dmax was in the range of 50 to 70% and the DC50 was below 0.01 µM.

For the compound `O=C1CCC(N2Cc3cc(C4(O)CCN(Cc5ccc(F)c(Nc6ccccc6)n5)CC4)ccc3C2=O)C(=O)N1` (centres unmarked) [Compound 197], the Dmax fell in the range of 50 to 70% and the DC50 was below 0.01 µM.

Turning to `N#Cc1ccc(CN2CCC(c3ccc4c(c3)CN(C3CCC(=O)NC3=O)C4=O)CC2)nc1Nc1ccccc1` (centres unmarked) [Compound 186], the Dmax was in the range of 50 to 70% and the DC50 was 0.03 to 0.15 µM.

Take `O=C1CCC(N2Cc3cc(C4(O)CCN(Cc5ccc(F)c(F)c5)CC4)ccc3C2=O)C(=O)N1` (centres unmarked) [Compound 244]: the Dmax was above 70% and the DC50 was below 0.01 µM.

For the compound `O=C1CCC(N2Cc3cc(C4CCN(Cc5cccc(N6CCC7(CC7)C6=O)c5)CC4)ccc3C2=O)C(=O)N1` (centres unmarked) [Compound 10], the Dmax fell in the range of 30 to 50% and the 50% degradation concentration (DC50) is 0.01 to 0.03 µM.

With `O=C1CCC(N2Cc3cc(C4(O)CCN(Cc5ccc6c(c5)OC(F)(F)O6)CC4)ccc3C2=O)C(=O)N1` (centres unmarked) [Compound 271], the maximal degradation (Dmax) was above 70% and the 50% degradation concentration (DC50) is below 0.01 µM.

Consider `O=C1CCC(N2Cc3cc(C4CCN(Cc5cc(Nc6ccccc6)ncn5)CC4)ccc3C2=O)C(=O)N1` (centres unmarked) [Compound 116], for which the Dmax was 30 to 50% and the half-maximal degradation concentration (DC50) lay in the range of 0.03 to 0.15 µM.

Regarding `O=C1CCC(N2Cc3cc(C4(O)CCN(Cc5cccc(Cl)c5)CC4)ccc3C2=O)C(=O)N1` (centres unmarked) [Compound 207], the Dmax is above 70% and the DC50 is below 0.01 µM.

Take `Cc1ccccc1CN1CCC(O)(c2ccc3c(c2)CN(C2CCC(=O)NC2=O)C3=O)CC1` (centres unmarked) [Compound 265]: the greatest degradation seen (Dmax) is above 70% and the DC50 is below 0.01 µM.

As for `O=C1CCC(N2Cc3cc(C4CCN(Cc5ccnc(Nc6ccccc6)c5)CC4)ccc3C2=O)C(=O)N1` (centres unmarked) [Compound 137], the Dmax fell in the range of 50 to 70% and the DC50 was below 0.01 µM.

For the compound `O=C1CCC(N2Cc3cc(C4(O)CCN(Cc5ccnc(Nc6ccccc6)c5F)CC4)ccc3C2=O)C(=O)N1` (centres unmarked) [Compound 198], the Dmax is above 70% and the half-maximal degradation concentration (DC50) was below 0.01 µM.

With `O=C1CCC(N2Cc3cc(C4CCN(Cc5ccc(S(=O)(=O)N6CCC7(CC7)C6)cc5)CC4)ccc3C2=O)C(=O)N1` (centres unmarked) [Compound 169], the Dmax is 50 to 70% and the 50% degradation concentration (DC50) is below 0.01 µM.

On to `O=C1CCC(N2Cc3cc(C4CCN(Cc5ccc6c(c5)C(=O)N(c5ccns5)C6)CC4)ccc3C2=O)C(=O)N1` (centres unmarked) [Compound 224], for which the greatest degradation seen (Dmax) was above 70% and the DC50 was below 0.01 µM.

Turning to `O=C1CCC(N2Cc3cc(C4CCN(Cc5ccc(S(=O)(=O)Nc6ccccc6)cc5)CC4)ccc3C2=O)C(=O)N1` (centres unmarked) [Compound 91], the Dmax was in the range of 50 to 70% and the DC50 was below 0.01 µM.

`O=C1CCC(N2Cc3cc(C4CCN(Cc5cccc(Nc6ccsn6)c5)CC4)ccc3C2=O)C(=O)N1` (centres unmarked) [Compound 233]: the Dmax lay in the range of 50 to 70% and the half-maximal degradation concentration (DC50) lay within 0.01 to 0.03 µM.

Turning to `O=C1CCC(N2Cc3cc(C4CCN(Cc5cccc(NC(=O)c6ccccc6)c5)CC4)ccc3C2=O)C(=O)N1` (centres unmarked) [Compound 50], the Dmax was 50 to 70% and the 50% degradation concentration (DC50) lay within 0.01 to 0.03 µM.

On to `O=C1CCC(N2Cc3cc(C4CCN(Cc5ccccc5)C(CO)C4)ccc3C2=O)C(=O)N1` (centres unmarked) [Compound 212], for which the maximal degradation (Dmax) lay within 50 to 70% and the DC50 was 0.03 to 0.15 µM.

With `CN(c1cccc(CN2CCC(c3ccc4c(c3)CN(C3CCC(=O)NC3=O)C4=O)CC2)c1)c1ncccn1` (centres unmarked) [Compound 232], the Dmax was 50 to 70% and the DC50 lay within 0.01 to 0.03 µM.

On to `Cc1ccnc(Nc2cccc(CN3CCC(c4ccc5c(c4)CN(C4CCC(=O)NC4=O)C5=O)CC3)c2F)n1` (centres unmarked) [Compound 231], for which the Dmax was 50 to 70% and the DC50 is below 0.01 µM.

In the case of `O=C1CCC(N2Cc3cc(C4CCN(Cc5ccc6c(c5)C(=O)N(c5ccccn5)CCC6)CC4)ccc3C2=O)C(=O)N1` (centres unmarked) [Compound 184], the greatest degradation seen (Dmax) lay in the range of 50 to 70% and the DC50 was in the range of 0.01 to 0.03 µM.

Regarding `O=C1CCC(N2Cc3cc(C4(O)CCN(Cc5ccc(C(F)(F)F)cc5)CC4)ccc3C2=O)C(=O)N1` (centres unmarked) [Compound 251], the greatest degradation seen (Dmax) was above 70% and the DC50 was below 0.01 µM.

The record behind these values is patent publication US20230002397A1, “SMALL MOLECULE DEGRADERS OF HELIOS AND METODS OF USE” (DANA-FARBER CANCER INSTITUTE, INC., priority 2019, published 2023).
